Reference: patent US8048879B2, “Substituted 4,5,6,7-tetrahydro-isoxazolo[4,5-c]pyridine compounds and use thereof for producing medicaments” (Gruenenthal GmbH, priority 2005, dated 2011)

System: batrachotoxin (BTX) binding site of the sodium channel
Experiment: Affinity for the batrachotoxin (BTX) binding site of the sodium channel, [3H]-batrachotoxinin A20 α-benzoate, rat cerebrocortex synaptosomes
Conditions: test concentration not given

| SMILES | BTX inhibition (rat) % inhibition [%] |
| --- | --- |
| O=C(c1noc2c1CN(S(=O)(=O)c1ccc(Cl)c(Cl)c1)CC2)N1CCN(c2nccs2)CC1 [Example 140, (5-(3,4-dichlorophenylsulfonyl)-4,5,6,7-tetrahydroisoxazolo[4,5-c]pyridin-3-yl)(4-(thiazol-2-yl)piperazin-1-yl)methanone] | 55 |
| O=C(c1noc2c1CN(S(=O)(=O)c1ccc(Cl)c(Cl)c1)CC2)N1CCC(CCN2CCCC2)CC1 [Example 147, (5-(3,4-dichlorophenylsulfonyl)-4,5,6,7-tetrahydroisoxazolo[4,5-c]pyridin-3-yl)(4-(2-(pyrrolidin-1-yl)ethyl)piperidin-1-yl)methanone] | 70 |
| O=C(Nc1ccccc1)c1noc2c1CN(C(=O)Nc1ccc(OC(F)(F)F)cc1)CC2 [Example 3, 6,7-dihydro-4H-isoxazolo[4,5-c]pyridine-3,5-dicarboxylic acid 3-phenyl amide 5-[(4-trifluoromethoxy-phenyl) amide]] | 73 |
| O=C(O)CC1(CC(=O)N2CCc3onc(C(=O)Nc4ccccc4)c3C2)CCCC1 [Example 28, {1-[2-oxo-2-(3-phenylcarbamoyl-6,7-dihydro-4H-isoxazolo[4,5-c]pyridin-5-yl)-ethyl]-cyclopentyl}acetic acid] | 60 |
| CCOc1ccc(NC(=O)N2CCc3onc(C(=O)Nc4ccccc4)c3C2)cc1 [Example 13, 6,7-dihydro-4H-isoxazolo[4,5-c]pyridine-3,5-dicarboxylic acid 5-[(4-ethoxy-phenyl) amide] 3-phenyl amide] | 58 |
| Cc1cc(C)c(S(=O)(=O)N2CCc3onc(C(=O)N4CCN(c5nccs5)CC4)c3C2)c(C)c1 [Example 141, (5-(mesitylsulfonyl)-4,5,6,7-tetrahydroisoxazolo[4,5-c]pyridin-3-yl)(4-(thiazol-2-yl)piperazin-1-yl)methanone] | 67 |
| O=C(c1noc2c1CN(S(=O)(=O)c1ccc3ccccc3c1)CC2)N1CCN(c2nccs2)CC1 [Example 143, (5-(naphthalen-2-ylsulfonyl)-4,5,6,7-tetrahydroisoxazolo[4,5-c]pyridin-3-yl)(4-(thiazol-2-yl)piperazin-1-yl)methanone] | 48 |
